Assay results as given in ChEMBL document CHEMBL1140519, “2-(2-Chloro-6-fluorophenyl)acetamides as potent thrombin inhibitors” (Bioorg Med Chem Lett, 2007).

The molecules below were run against Prothrombin (Homo sapiens, UniProt P00734) (assay: Inhibition of human thrombin after 15 mins by standard chromogenic assay).

| SMILES | Ki [nM] |
| --- | --- |
| NC(N)=NOCCNC(=O)Cc1c(Cl)ccc(NCC(F)(F)c2ccc(Cl)cn2)c1F | 1.8 |
| Cc1nc(N)ccc1CNC(=O)Cc1c(Cl)ccc(NCC(F)(F)c2ccc(Cl)cn2)c1F | 0.7 |
| N=C(N)NOCCNC(=O)Cc1c(Cl)ccc(NCC(F)(F)c2cccc3cccnc23)c1F | 2.7 |
| NC(N)=NOCCNC(=O)Cc1c(Cl)ccc(NCC(F)(F)c2cccc3cnccc23)c1F | 4.7 |
| Cc1nc(N)ccc1CNC(=O)Cc1c(Cl)ccc(NCC(F)(F)c2ccccc2)c1F | 10.3 |
| NC(N)=NOCCNC(=O)Cc1c(Cl)ccc(NCC(F)(F)c2cccnc2)c1F | 33.9 |
| Cc1nc(N)ccc1CNC(=O)Cc1c(Cl)ccc(NCC(F)(F)c2ccc(Cl)c[n+]2[O-])c1F | 0.9 |

Further lines, results first:

| Ki [nM] | SMILES |
| --- | --- |
| 57 | N=C(N)NOCCNC(=O)Cc1c(Cl)ccc(NCC2(c3ccccn3)CC2)c1F |
| 169 | N=C(N)NOCCNC(=O)Cc1c(Cl)ccc(NCC(F)(F)c2cnc3ccccc3c2)c1F |
| 128 | CC(C)(CNc1ccc(Cl)c(CC(=O)NCCONC(=N)N)c1F)c1cccnc1 |
| 142 | N=C(N)NOCCNC(=O)Cc1c(Cl)ccc(NCC2(c3cccnc3)CC2)c1F |
| 58 | CC(C)(CNc1ccc(Cl)c(CC(=O)NCCONC(=N)N)c1F)c1ccccn1 |
| 8.6 | NC(N)=NOCCNC(=O)Cc1c(Cl)ccc(NCC(F)(F)c2ccccn2)c1F |
| 1280 | N=C(N)NOCCNC(=O)Cc1c(Cl)ccc(NS(=O)(=O)c2ccccc2)c1F |
